From patent US5962502A, “Polyamidic acid derivatives with antigastrin activity, a method for their preparation, and their pharmaceutical use” (priority 1993, dated 1999)
Values joined by “and” are separate entries in the source; they are usually repeats but may differ in a detail not shown here. Equal values may be shown once.

Key:
[1] = biological target: T1, gastrin receptors or type-B cholecystokinin (CCK-B) receptors (Oryctolagus cuniculus, UniProt P46627); experiment: Inhibition of the gastrin-induced increase of cytosolic calcium in rabbit gastric mucous-membrane cells (Fura 2); format: cell-based; conditions: for Ratio IC50 Binding cortex / IC50 (gastric mucous cells): binding values taken from Table 3; for IC50, inhibition of the increase of cytosolic calcium: rabbit gastric mucous cells enriched in parietal cells, gastrin 5×10^-8
T1 construct: Rabbit gastric mucous-membrane cells were prepared by conventional techniques; endogenous in cells; host or cells: freshly isolated rabbit gastric mucosal cells, enriched by elutriation to about 70% parietal cells
T1 sequence (P46627 1-452): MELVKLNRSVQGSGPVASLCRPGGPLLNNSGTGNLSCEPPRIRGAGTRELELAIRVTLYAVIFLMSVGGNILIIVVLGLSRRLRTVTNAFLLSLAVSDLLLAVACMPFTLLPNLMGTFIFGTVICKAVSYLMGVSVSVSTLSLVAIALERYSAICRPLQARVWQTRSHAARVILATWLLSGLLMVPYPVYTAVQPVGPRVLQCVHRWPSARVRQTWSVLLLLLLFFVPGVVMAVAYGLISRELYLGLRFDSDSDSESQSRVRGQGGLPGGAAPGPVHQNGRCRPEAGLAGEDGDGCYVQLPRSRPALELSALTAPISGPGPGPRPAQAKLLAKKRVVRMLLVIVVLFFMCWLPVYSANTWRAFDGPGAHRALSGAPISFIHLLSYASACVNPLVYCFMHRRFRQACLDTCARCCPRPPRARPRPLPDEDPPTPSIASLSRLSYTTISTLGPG
Description: The parietal cells of the gastric mucous membrane are responsible for the secretion of HCl. They have specific membrane receptors which can be activated by gastrin and which have been defined as gastrin receptors or type-B cholecystokinin (CCK-B) receptors. Since it has been observed that the activation of the CCK-B receptors by gastrin leads to an increase in the cytosolic levels of calcium ions, a technique involving the measurement of the increase in intracellular calcium induced by gastrin in the presence and in the absence of the compounds of the invention was used as an index of the antigastrin activity of the compounds. Rabbit gastric mucous-membrane cells were prepared by conventional techniques with the use of collagenase and pronase as digestive enzymes. The cellular preparation obtained by the enzymatic digestion was composed of parietal cells, zymogen cells and mucous-membrane cells. […] The cells were then washed and resuspended in a saline solution buffered with HEPES containing, in mM: […] Each measurement was carried out on cells in suspension (0.8×10^6 /ml) at a thermostatically-controlled temperature of 37° C. and with constant magnetic stirring. The fluorescence was recorded with the use of a spectrofluorometer. The operative wavelengths were 340/380 nm for excitation and 505 nm for emission. […] Biol. Chem. 260 (1985), 3440]. […] The results thus obtained for some compounds of the invention are given in Table 4, which also gives an index derived from the ratio between the peripheral antigastrin activity just described and the displacement activity found in the test on binding to the guinea-pig cortex receptors described above.

[2] = system: acid secretion induced by pentagastrin; experiment: Acid secretion induced by pentagastrin in the anaesthetized rat; format: in vivo; conditions: for ED50: iv, 1 h, I.V. bolus, pentagastrin 30 mcg/kg/h, read-out: Activity (ID50), inhibition of the acid secretion induced by pentagastrin
Protocol: The activity of the compounds of the invention against gastric secretion performed by means of a mechanism with an antigastrin effect, was examined in vivo in anaesthetized rats with the use of male animals weighing about 200 g. Gastric secretion was stimulated with pentagastrin and Lai's method [Gut 5, (1964), 327-341 ] was used, with slight modification.
After tracheotomy, the oesophagus and duodenum were cannulated. A tepid solution (37° C.) of 0.25 mM NaOH was perfused and was passed through the stomach by means of a peristaltic pump at a constant flow-rate of 1 ml/minute. After stabilization for 20 minutes, the stimulant, dissolved in a physiological solution, was perfused for 120 minutes at a dose of 30 mcg/kg/h, in a volume of 0.95 ml/hour. After perfusion for 60 minutes (the basal stimulation), the product under test was administered intravenously (I.V.) as a bolus and perfusion of the stimulant was continued for a further 60 minutes. The acid secretion was recorded continuously as a function of time.
The activity of the product was evaluated as the percentage reduction of secreted acidity after the administration of the product, in comparison with the basal acidity measured during the first 60 minutes of collection in the presence of pentagastrin alone.
The antagonistic compounds tested were administered in various doses so that an ID50, that is, the dose (in mg/kg I.V.) which could inhibit the effect of pentagastrin by 50%, could be calculated.

[3] = biological target: T2, CCK-A (Cavia porcellus, UniProt Q63931); experiment: Anti-CCK-A activity on guinea-pig gall bladder stimulated in vitro by CCK-8
T2 construct: A longitudinal strip of guinea-pig gall-bladder was put in a bath for isolated organs; from tissue; host or cells: guinea-pig gall bladder longitudinal strip
T2 sequence (Q63931 1-430): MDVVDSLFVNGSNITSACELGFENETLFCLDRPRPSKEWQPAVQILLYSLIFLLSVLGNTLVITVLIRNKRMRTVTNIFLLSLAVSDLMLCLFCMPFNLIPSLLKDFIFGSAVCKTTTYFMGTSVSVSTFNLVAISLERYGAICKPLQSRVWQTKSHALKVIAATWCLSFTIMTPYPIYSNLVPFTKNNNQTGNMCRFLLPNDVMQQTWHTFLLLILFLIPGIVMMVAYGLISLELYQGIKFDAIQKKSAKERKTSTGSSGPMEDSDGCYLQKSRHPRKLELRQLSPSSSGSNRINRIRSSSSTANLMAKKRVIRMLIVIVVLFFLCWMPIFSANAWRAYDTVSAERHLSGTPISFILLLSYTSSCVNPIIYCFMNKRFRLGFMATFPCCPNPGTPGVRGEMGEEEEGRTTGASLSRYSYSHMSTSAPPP
Protocol: The experimental model used was guinea-pig gall bladder stimulated in vitro by CCK-8, with the use of lorglumide as the reference standard. A longitudinal strip of guinea-pig gall-bladder was put in a bath for isolated organs in the presence of Krebs buffer at a temperature of 32° C., with continuous oxygenation with an oxygen-CO2 mixture (95-[…]). The isometric contractions were detected by means of a force transducer and recorded.

[4] = biological target: T3, central CCK-B receptor (Cavia porcellus, UniProt H0VZC5); experiment: Inhibition of the binding of [3-H][N-methyl-N-leucine]CCK-8 to guinea-pig cortical membranes; conditions: guinea-pig cortical membranes; for IC50: 150 minutes at 25° C.
T3 construct: Cerebral cortices of male white guinea-pigs were thus used; from tissue; host or cells: cerebral cortex membranes of male white guinea-pigs
T3 sequence (H0VZC5 1-426): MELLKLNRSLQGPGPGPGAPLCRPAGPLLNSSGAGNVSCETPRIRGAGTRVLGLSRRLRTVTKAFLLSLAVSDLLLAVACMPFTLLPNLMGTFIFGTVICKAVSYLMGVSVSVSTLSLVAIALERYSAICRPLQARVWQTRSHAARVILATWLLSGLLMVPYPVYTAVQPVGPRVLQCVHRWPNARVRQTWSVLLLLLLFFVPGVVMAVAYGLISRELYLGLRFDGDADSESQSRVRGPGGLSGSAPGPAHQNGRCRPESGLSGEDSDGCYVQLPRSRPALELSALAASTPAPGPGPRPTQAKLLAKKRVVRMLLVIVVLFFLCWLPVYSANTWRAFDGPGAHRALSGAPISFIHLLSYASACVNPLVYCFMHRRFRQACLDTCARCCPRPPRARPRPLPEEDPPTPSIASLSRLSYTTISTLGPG
Protocol: The ability of the compounds of the invention to interact with the central CCK-B receptor was evaluated with the use of non-sulphated [3-H] […] 225 (3) (1990), 1278-1286].
Cerebral cortices of male white guinea-pigs were thus used, according to the method mentioned above, so as to obtain a membrane content corresponding to about 300 mcg of proteins/ml. The membranes were incubated together with the radioactive tracer and the compounds under test for 150 minutes at 25° C. After the supernatant had been discarded, the radioactivity associated with the pellet was determined with a liquid scintillator. The specific binding was determined as the difference between the binding in the absence and in the presence of 5.10^-6 M CCK-8.

Ratio IC50 Binding cortex / IC50 (gastric mucous cells) [1]	CCK-B-antagonistic activity IC50 (II) ([1]; data taken from Table 4 (rabbit gastric mucous cells), reprinted in Table 6) [µM]	IC50, inhibition of the increase of cytosolic calcium [1] [µM]	Ratio I/II (CCK-A IC50 / CCK-B IC50) ([3]; gall bladder IC50 over gastric mucous cells IC50)	IC50 ([3]; guinea-pig gall bladder in vitro, CCK-8 10 ng/ml, read-out: CCK-A-antagonistic activity IC50 (I)) [µM]	IC50 [4] [µM]	inhibition of the binding of [N-methyl-N-leucine]CCK-8, result in words [4]	SMILES	ED50 [2]	antigastrin activity relative to the diastereoisomer at the carbon atom (**) ([2]; pentagastrin-induced acid secretion)
6.3	0.38	0.38	35.5	13.5	–	–	O=C(O)CC[C@@H](NC(=O)c1cc(Cl)cc(Cl)c1)C(=O)N1CCC2(CCCC2)CC1 [CR 2194, (R)-5-(8-azaspiro[4.5]decan-8-yl)-4-(3,5-dichloro-benzoylamino)-5-oxopentanoic acid, reference compound]	11 mg/kg and 24.9 µmol/kg	–
17.0	–	0.02	–	–	0.34	–	O=C(O)C[C@H](Cc1ccccc1)NC(=O)CC[C@@H](NC(=O)c1cc(Cl)cc(Cl)c1)C(=O)N1CCC2(CCCC2)CC1 [Compound 14]	9.7 mg/kg and 16.1 µmol/kg	about 1.5 times
1.7	–	0.06	–	–	0.1	potent inhibitors	CN(C(=O)CC[C@@H](NC(=O)c1cc(Cl)cc(Cl)c1)C(=O)N1CCC2(CCCC2)CC1)[C@H](Cc1ccccc1)C(=O)O [Compound 12]	13.6 mg/kg and 24.2 µmol/kg	–
